Assay results published in patent publication US20190046552A1, “COMPOSITIONS AND METHODS FOR THE TREATMENT OF HCV INFECTION” (priority 2015, published 2019).
Where two headings read alike, the source gives them in different places.

Key:
[1] = Part A (SAD): plasma PK of Formula (IIa) and its metabolites after a single oral dose of Formula (IIa), fed or fasted; type: in vivo, human; conditions: for Cmax / AUC(0-t) / Tmax / AUC(0-inf) / half-life: human, in vivo; for Cmax / AUC(0-t) / Tmax: po
Protocol: The study was a Phase 1, two-part, first-in-human study of single (Part A) and multiple (Part B) ascending doses (SAD and MAD) of Formula (IIa) at doses of 100-900 mg given as a monotherapy for up to 7 days. Subjects were enrolled at multiple sites in Australia and New Zealand. For both Parts A and B, the Safety Review Committee (SRC) determined whether dose escalation occurred after review of all safety data and any available PK/PD data. Part A was an open label, randomized SAD study consisting of four cohorts of two subjects each, with one subject randomized to be dosed in the fed state and the other in the fasted state, at doses of 100 mg to 800 mg Formula (IIa). All subjects were given a single dose of Formula (IIa) orally.
(§1) All plasma PK calculations were performed using actual time points calculated relative to the time of last drug administration.
(§2) PK analysis was conducted for all enrolled subjects that received any dose of Formula (IIa) with sufficient plasma sample data to assess PK parameters. […] Data analysis was performed using a validated version of WinNonlin® Enterprise (Version 5.2) software, and summary tables and figures were generated using a validated version of WinNonlin® Autopilot™ (Version 1.1.1) and other reporting tools, including SigmaPlot®.

[2] = Part B (MAD): plasma PK of Formula (IIa) and its metabolites after once-daily oral Formula (IIa) for 7 days, fasted; type: in vivo, human; conditions: fasted, Day 7, plasma; for Cmin: arithmetic mean (CV %); for Tmin: median (min, max)
Protocol: Part B was a blinded, randomized, placebo-controlled MAD study consisting of four cohorts of eight subjects randomized 6:2 to receive Formula (IIa) or placebo. […] To control for the possible effect of the IL28b genotype, the number of subjects with CC alleles was capped at three per cohort.
The starting dose was determined by the SRC based on review of all safety and any available PK/PD data from Part A. All subjects were dosed in the fasted state with Formula (IIa) daily, from Day 1 until […]. All subjects had nothing by mouth other than water for at least 10 hours prior to daily dosing and for 4 hours thereafter. In Part B, all subjects were administered the study medication orally with approximately 240 mL of water at the same time every day (+/−10 minutes).
A subset of blood samples shown in Table 3 above was used for the PK evaluation of plasma trough concentrations (Table 4). In addition, blood sample assessment of antiviral response was collected according to the following sampling schedule for Part B (Table 4).
as §1, §2

CO[C@H]1C(OP(=O)(OC[C@H]2O[C@@H](n3cnc4c(N)ncnc43)CC2O)SCOC(=O)OC(C)C)[C@@H](CO)O[C@H]1n1ccc(=O)[nH]c1=O (some centres unmarked) [Formula (IIa)]
Cmax ([1]; 200 mg, single oral 200 mg Formula (IIa), fasted, plasma, N=1): 0.577 ng/mL
AUC(0-t) ([1]; 200 mg, single oral 200 mg Formula (IIa), fasted, plasma, N=1, read-out: AUC0-24): 0.433 ng·h/mL
AUC(0-t) ([1]; 200 mg, single oral 200 mg Formula (IIa), fasted, plasma, N=1, read-out: AUC0-t): 0.289 ng·h/mL
Tmax ([1]; 200 mg, single oral 200 mg Formula (IIa), fasted, plasma, N=1, read-out: Tmax): 1 h
Cmax ([1]; 200 mg, single oral 200 mg Formula (IIa), fed, plasma, N=1): 0.261 ng/mL
AUC(0-t) ([1]; 200 mg, single oral 200 mg Formula (IIa), fed, plasma, N=1, read-out: AUC0-24): 0.131 ng·h/mL
AUC(0-t) ([1]; 200 mg, single oral 200 mg Formula (IIa), fed, plasma, N=1, read-out: AUC0-t): 0.0653 ng·h/mL
Tmax ([1]; 200 mg, single oral 200 mg Formula (IIa), fed, plasma, N=1, read-out: Tmax): 2 h
Cmax ([1]; 400 mg, single oral 400 mg Formula (IIa), fasted, plasma, N=1): 1.16 ng/mL
AUC(0-t) ([1]; 400 mg, single oral 400 mg Formula (IIa), fasted, plasma, N=1, read-out: AUC0-24): 1.37 ng·h/mL
AUC(0-t) ([1]; 400 mg, single oral 400 mg Formula (IIa), fasted, plasma, N=1, read-out: AUC0-t): 1.31 ng·h/mL
Tmax ([1]; 400 mg, single oral 400 mg Formula (IIa), fasted, plasma, N=1, read-out: Tmax): 2.5 h
Cmax ([1]; 400 mg, single oral 400 mg Formula (IIa), fed, plasma, N=1): 0.574 ng/mL
AUC(0-t) ([1]; 400 mg, single oral 400 mg Formula (IIa), fed, plasma, N=1, read-out: AUC0-24): 1.13 ng·h/mL
AUC(0-t) ([1]; 400 mg, single oral 400 mg Formula (IIa), fed, plasma, N=1, read-out: AUC0-t): 1.07 ng·h/mL
Tmax ([1]; 400 mg, single oral 400 mg Formula (IIa), fed, plasma, N=1, read-out: Tmax): 1.5 h
Cmax ([1]; 800 mg, single oral 800 mg Formula (IIa), fasted, plasma, N=1): 0.734 ng/mL
AUC(0-t) ([1]; 800 mg, single oral 800 mg Formula (IIa), fasted, plasma, N=1, read-out: AUC0-24): 0.809 ng·h/mL
AUC(0-t) ([1]; 800 mg, single oral 800 mg Formula (IIa), fasted, plasma, N=1, read-out: AUC0-t): 0.751 ng·h/mL
Tmax ([1]; 800 mg, single oral 800 mg Formula (IIa), fasted, plasma, N=1, read-out: Tmax): 1 h
Cmax ([1]; 800 mg, single oral 800 mg Formula (IIa), fed, plasma, N=1): 0.486 ng/mL
AUC(0-t) ([1]; 800 mg, single oral 800 mg Formula (IIa), fed, plasma, N=1, read-out: AUC0-24): 0.96 ng·h/mL
AUC(0-t) ([1]; 800 mg, single oral 800 mg Formula (IIa), fed, plasma, N=1, read-out: AUC0-t): 0.9 ng·h/mL
Tmax ([1]; 800 mg, single oral 800 mg Formula (IIa), fed, plasma, N=1, read-out: Tmax): 1.5 h
Tmax ([1]; single oral Formula (IIa), subjects dosed under fasted conditions, read-out: Individual Tmax range): 1 to 2.5 h
Tmax ([1]; single oral Formula (IIa), subjects dosed under fed conditions, read-out: Individual Tmax range): 1.5 to 2 h
AUC(0-inf) ([1]; single oral 400 mg Formula (IIa), fed, plasma, N=1): 1.43 ng·h/mL
half-life ([1]; single oral 400 mg Formula (IIa), fed, plasma, N=1, read-out: t1/2 (converted)): 1.16 h
AUC(0-inf) ([1]; single oral 800 mg Formula (IIa), fed, plasma, N=1): 1.39 ng·h/mL
half-life ([1]; single oral 800 mg Formula (IIa), fed, plasma, N=1, read-out: t1/2 (converted)): 1.42 h
half-life ([1]; two fed subjects (400 mg and 800 mg dose cohorts), read-out: half-life (terminal phase), range): 1.16 to 1.42 h
measurable Formula (IIa) concentrations in plasma ([1]; single oral 100 mg Formula (IIa), fasting and fed): no measurable Formula (IIa) concentrations
AUC0-t in the fasted subject higher than the fed subject ([1]; single oral 200 mg Formula (IIa)): 4 fold
peak plasma concentrations in the fasted subjects, times higher compared to the fed subjects ([1]; single oral 400 mg Formula (IIa)): 2.0 times
peak plasma concentrations in the fasted subjects, times higher compared to the fed subjects ([1]; single oral 800 mg Formula (IIa)): 1.5 times
measurable concentrations of Formula (IIa) in plasma ([1]; single oral dose levels of 100 mg and 200 mg): did not produce measurable concentrations
Cmin ([2]; 200 mg Formula (IIa) QD oral): 0.00 (NC) ng/ml
Tmin ([2]; 200 mg Formula (IIa) QD oral): 0.00 h
Cmin ([2]; 400 mg Formula (IIa) QD oral): 0.00 (NC)^ ng/ml
Tmin ([2]; 400 mg Formula (IIa) QD oral): 0.00 h
Cmin ([2]; 900 mg Formula (IIa) QD oral): 0.00 (NC) ^ ng/ml
